Patent US4142046A, “Intermediates for the preparation of 7-acyl-3-(substituted triazolylthiomethyl)cephalosporins” (SmithKline Corporation, priority 1976, dated 1979)
≈ marks a conversion by molar mass, not a printed value. Read-outs that look alike come from different tables or passages of the source.

Assays:
Kleb. pneumo. 4200 = experiment: In vivo mouse protection (ED50); details: for ED50: Mus musculus
E. coli 12140 = experiment: In vivo mouse protection (ED50)
Salmonella ATCC 12176 = experiment: MIC in vitro; assay type: cell-based; details: ATCC12176
Description: (§1) The compounds of Formula I have antibacterial activity against both Gram-positive and Gram-negative organisms. Minimum inhibitory concentrations (MIC's) ranged from 0.2 to >200 μg./ml. in in vitro testing. […] Compound numbers corresponding to structures are given in the experimental section.

Entero. cloacae HH 31254 = experiment: MIC in vitro; assay type: cell-based; details: Enterobacter cloacae, HH31254, read-out: MIC in vitro
Description: as §1

E. coli SK 12140 = experiment: MIC in vitro; assay type: cell-based; details: Escherichia coli
Description: as §1

Shigella HH 117 = experiment: MIC in vitro; assay type: cell-based; details: Shigella, HH117, Shigella HH 117
Description: as §1

Kleb. pneumo. SK 1200 = experiment: MIC in vitro; assay type: cell-based; details: Kleb. pneumo. SK 1200; for MIC: read-out: MIC in vitro
Description: as §1

S. villaluz = experiment: MIC in vitro; assay type: cell-based; details: read-out: MIC in vitro
Description: as §1

Strep. faecalis HH 34358 = experiment: MIC in vitro; assay type: cell-based; details: for MIC: Enterococcus faecalis, HH34358, Strep. faecalis HH 34358
Description: as §1

Pseudo. sp. HH 63 = experiment: MIC in vitro; assay type: cell-based
Description: as §1

[1] = tested on: Entero. aerog. ATCC 13048; experiment: MIC in vitro; assay type: cell-based
Description: as §1

Kleb. pneumo. SK 4200 = experiment: MIC in vitro; assay type: cell-based; details: read-out: MIC in vitro
Description: as §1

Serra. marc. ATCC 13880 = experiment: MIC in vitro; assay type: cell-based
Description: as §1

S. aureus HH 127 = experiment: MIC in vitro; assay type: cell-based; details: Staphylococcus aureus
Description: as §1

S. aureus SK 23390 = experiment: MIC in vitro; assay type: cell-based; details: for MIC: Staphylococcus aureus
Description: as §1

E. coli HH 33779 = experiment: MIC in vitro; assay type: cell-based; details: Escherichia coli, HH33779
Description: as §1

Proteus Morgani 179 = experiment: MIC in vitro; assay type: cell-based
Description: as §1

[2] = Escherichia coli, 12140, po, E. coli 12140, p.o.
[3] = Escherichia coli, 12140, sc, E. coli 12140, s.c.
[4] = SK12140, E. coli SK 12140, read-out: MIC in vitro
[5] = SK23390, read-out: MIC in vitro
[6] = SK23390, S. aureus SK 23390, read-out: MIC in vitro

SMILES	ED50 (Kleb. pneumo. 4200; po, Kleb. pneumo. 4200, p.o.) [mg/kg]	ED50 (Kleb. pneumo. 4200; sc, Kleb. pneumo. 4200, s.c.) [mg/kg]	ED50 (E. coli 12140; [2]) [mg/kg]	ED50 (E. coli 12140; [3]) [mg/kg]	MIC (Salmonella ATCC 12176) [µg/mL]	MIC (Entero. cloacae HH 31254) [µg/mL]	MIC (E. coli SK 12140; [4]) [µg/mL]	MIC (Shigella HH 117) [µg/mL]	MIC (Kleb. pneumo. SK 1200) [µg/mL]	MIC (S. villaluz) [µg/mL]	MIC (Strep. faecalis HH 34358) [µg/mL]	MIC (Pseudo. sp. HH 63) [µg/mL]	MIC [1] [µg/mL]	MIC (Serra. marc. ATCC 13880) [µg/mL]	MIC (S. aureus HH 127; HH127, read-out: MIC in vitro) [µg/mL]	MIC (S. aureus SK 23390; [5]) [µg/mL]	MIC (E. coli HH 33779) [µg/mL]	MIC (Proteus Morgani 179) [µg/mL]	MIC (S. aureus SK 23390; [6]) [µg/mL]	further results
O=C(O)C1=C(CSc2[nH]nnc2C(=O)O)CS[C@@H]2C(NC(=O)[C@H](O)c3ccccc3)C(=O)N12 (stereo partly drawn) [VI, 7-D-Mandelamido-3-(4-carboxy-1,2,3-triazol-5-ylthiomethyl)-3-cephem-4-carboxylic acid]	> 200	86	> 200	25	12.5 (≈ 25.4 µM)	12.5 (≈ 25.4 µM)	6.3 (≈ 12.8 µM)	6.3 (≈ 12.8 µM)	3.1 (≈ 6.31 µM)	200 (≈ 407 µM)	> 200	> 200	50 (≈ 102 µM)	> 200	6.3 (≈ 12.8 µM)	3.1 (≈ 6.31 µM)	25 (≈ 50.9 µM)	> 200	–	MIC (Kleb. pneumo. SK 4200): 12.5 µg/mL (≈ 25.4 µM)
N[C@@H](C(=O)NC1C(=O)N2C(C(=O)O)=C(CSc3[nH]nnc3C(=O)O)CS[C@H]12)c1ccccc1 (stereo partly drawn) [V, 7-(D-α-Aminophenylacetamido)-3-(4-carboxy-1,2,3-triazol-5-ylthiomethyl)-3-cephem-4-carboxylic acid]	> 50	> 50	> 200	25	–	–	9 (≈ 18.3 µM)	–	3.1 (≈ 6.32 µM)	200 (≈ 408 µM)	200 (≈ 408 µM)	> 200	25 (≈ 51 µM)	> 200	12.5 (≈ 25.5 µM)	12.5 (≈ 25.5 µM)	25 (≈ 51 µM)	> 200	19 (≈ 38.7 µM)	MIC (E. coli SK 12140; SK12140, read-out: MIC in vitro, E. coli SK 12140): 12.5 µg/mL (≈ 25.5 µM); MIC in vitro (Kleb. pneumo. SK 1200): 4.7 µg/mL (≈ 9.58 µM)
CCOC(=O)c1nn[nH]c1SCC1=C(C(=O)O)N2C(=O)C(NC(=O)[C@H](N)c3ccc(O)cc3)[C@H]2SC1 (stereo partly drawn) [I, 7-(D-α-Amino-4-hydroxyphenylacetamido)-3-(4-carbethoxy-1,2,3-triazol-5-ylthiomethyl)-3-cephem-4-carboxylic acid]	–	–	> 200	100	12.5 (≈ 23.4 µM)	12.5 (≈ 23.4 µM)	–	12.5 (≈ 23.4 µM)	–	200 (≈ 374 µM)	200 (≈ 374 µM)	> 200	–	> 200	–	–	25 (≈ 46.8 µM)	> 200	25 (≈ 46.8 µM)	MIC in vitro (Strep. faecalis HH 34358; Strep. faecalis HH 34358): 100 µg/mL (≈ 187 µM); MIC in vitro (S. aureus SK 23390; S. aureus SK 23390): 13 µg/mL (≈ 24.3 µM)
CCOC(=O)Cc1nc(SCC2=C(C(=O)O)N3C(=O)C(NC(=O)[C@H](N)c4ccccc4)[C@H]3SC2)n[nH]1 (stereo partly drawn) [III, 7-(D-α-Aminophenylacetamido)-3-(5-carbethoxymethyl-1,2,4-triazol-3-ylthiomethyl)-3-cephem-4-carboxylic acid]	50	< 3	78	–	25 (≈ 46.9 µM)	–	50 (≈ 93.9 µM)	13 (≈ 24.4 µM)	25 (≈ 46.9 µM)	–	100 (≈ 188 µM)	–	100 (≈ 188 µM)	> 200	–	–	50 (≈ 93.9 µM)	> 200	6 (≈ 11.3 µM)	ED50 in vivo (Kleb. pneumo. 4200; Kleb. pneumo. 4200, s.c.): 3 mg/kg; MIC (Kleb. pneumo. SK 4200; Kleb. pneumo. SK 4200): 25 µg/mL (≈ 46.9 µM); MIC (S. aureus HH 127; HH127, S. aureus HH 127, read-out: MIC in vitro): 6 µg/mL (≈ 11.3 µM)
